Measured values published in patent US20240050457A1 (UROVANT SCIENCES GMBH, priority 2020, published 2024).
Read-outs that look alike come from different tables or passages of the source.

How the values were obtained:
β3-AR = β3-AR (Homo sapiens, UniProt P13945); settings: cell based in vitro assays; cited from earlier work
cytochrome P450 = settings: cited from earlier work
[1] = for Tmax, median: healthy subjects, 18
Description: (§1) An open-label, single-dose and multiple-dose, two-period, two-treatment single-sequence drug-drug interaction study was conducted. All subjects received Treatment A during Period 1 and Treatment B during Period 2.
(§2) Samples were stored in polypropylene tubes and kept frozen at approximately −20° C. prior to analysis. A 150-μL matrix aliquot was fortified with 20 μL of 40.0 ng/mL internal standard working solution. Analytes were isolated using an Isolute SLE+ (200-mg) supported liquid extraction 96-well plate and eluted with 800 μL of methylene chloride. The eluate was evaporated under a nitrogen stream at approximately 45° C., and the remaining residue was reconstituted with 250 μL of 90:10:40:0.7 water/methanol/acetonitrile/1.0 M ammonium acetate, v/v/v/v. The final extract was analyzed via HPLC with column-switching and MS/MS detection using positive ion electrospray. Extracts were analyzed by HPLC MS/MS using positive ion electrospray.

clinical = settings: human, plasma, po, 0.25 mg
Description: as §1, §2

Sequence of β3-AR (P13945 whole entry): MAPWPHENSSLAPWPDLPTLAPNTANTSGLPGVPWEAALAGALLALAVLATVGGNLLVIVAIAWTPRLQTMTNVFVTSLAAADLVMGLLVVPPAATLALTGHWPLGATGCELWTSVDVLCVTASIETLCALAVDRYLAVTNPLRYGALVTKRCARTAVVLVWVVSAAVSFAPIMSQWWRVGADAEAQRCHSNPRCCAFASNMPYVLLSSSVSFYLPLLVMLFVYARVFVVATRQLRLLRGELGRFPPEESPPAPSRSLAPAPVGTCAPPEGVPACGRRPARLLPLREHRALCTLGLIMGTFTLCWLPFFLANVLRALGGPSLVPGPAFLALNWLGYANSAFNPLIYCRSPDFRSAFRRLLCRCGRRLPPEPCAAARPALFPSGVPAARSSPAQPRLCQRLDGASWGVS

Compound | selectivity for activation of β3-AR over β2-AR and β1-AR (β3-AR) | inhibitor of major enzymes produced from the cytochrome P450 genes (cytochrome P450) | Tmax, median ([1]; Digoxin 0.25 mg × 1 dose with vibegron (150 mg × 1 dose + 100 mg × 5 doses)) | Tmax, median ([1]; Digoxin alone, 0.25 mg single dose oral tablet) | change of half-life (T1/2) ([1]; group receiving digoxin+vibegron compared to group receiving digoxin alone) | AUC(0-inf) (clinical) | Cmax (clinical) | half-life (clinical)
O=C(Nc1ccc(C[C@@H]2CC[C@H]([C@H](O)c3ccccc3)N2)cc1)[C@@H]1CCc2nccc(=O)n21 [Vibegron, (6S)—N-[4-[[(2S,5R)-5-[(R)-hydroxy(phenyl)methyl]pyrrolidin-2-yl]methyl]phenyl]-4-oxo-7,8-dihydro-6H-pyrrolo[1,2-a]pyrimidine-6-carboxamide] | > 9,000 fold | not an inhibitor |  |  |  |  |  | 
C[C@H]1O[C@@H](O[C@H]2[C@@H](O)C[C@H](O[C@H]3[C@@H](O)C[C@H](O[C@H]4CC[C@@]5(C)[C@H](CC[C@@H]6[C@@H]5C[C@@H](O)[C@]5(C)[C@@H](C7=CC(=O)OC7)CC[C@]65O)C4)O[C@@H]3C)O[C@@H]2C)C[C@H](O)[C@@H]1O [Digoxin] |  |  | 1.00 | 1.00 | increase | 17.2 ng·h/mL | 1.24 ng/mL | 36.8 h
